Experimental data reported in patent publication EP3693740A1, “IMPROVED DITHIOCARMABATE BASED COMPOUNDS, THERAPIES AND DIAGNOSTICS” (Deutsches Krebsforschungszentrum, Stiftung des öffentlichen …, priority 2019, dated 2020).

Key:
[1] = biological target: truncated form of TRXR1, lacking the Sec (TRXR1ΔSec) (Homo sapiens, UniProt Q16881)
From the text: The present invention will now be further described in the following examples with reference to the accompanying figures and sequences, nevertheless, without being limited thereto. For the purposes of the present invention, all references as cited herein are incorporated by reference in their entireties.

SCLC = SCLC animal model, residual tumour cells after first line therapy; assay type: in vivo
From the text: In context of the herein disclosed invention it was discovered, that thioredoxin reductase 1 (TRXR1), when inhibited competitively, is a promising drug target for SCLC. DKFZ-608, a homoleptic dithiocarbamate gold complex, reversibly binds TRXR1 in competition with the TRXR1 substrate thioredoxin-1 (TRX1). Consequently, cells expressing low levels of TRX1, like SCLC, are hypersensitive to DKFZ-608, while cells, which express higher levels of TRX1, are resistant. DKFZ-608 causes oxidative stress in the cytoplasm, but not in mitochondria, further contributing to its low toxicity profile.

TRXR1 [2] = biological target: T1, TRXR1 (Homo sapiens, UniProt Q16881)
SCLC cell line H209 = assay: Induction of apoptotic cell death; assay type: cell-based
From the text: Treatment with DKFZ-608 caused morphological changes of the nucleus reminiscent of apoptosis (Figure 1A). […] The inventors then investigated the possible involvement of apoptotic mechanisms in the SCLC cell line H209. […] It was also investigated whether alternative cell death mechanisms like ferroptosis, necroptosis or entosis contribute to the cytotoxicity of DKFZ-608 on SCLC. Inhibitors of those cell death programs were, however, not able to desensitize SCLC cells.

TRXR1 [3] = biological target: T1, TRXR1; remark: listed apart in the source
TRXR1 [4] = biological target: T1, TRXR1; remark: listed apart in the source
[5] = system: peroxides (most likely H2O2); assay: Peroxide quantification with ROS Glo probe (boronate-caged luciferin precursor); assay type: cell-based
From the text: Gold(I) complexes have been previously reported to induce pro-oxidative effects in tumour cells.

roGFP2-Orp1 = assay: Oxidation of the genetically encoded H2O2 probe roGFP2-Orp1 (cytoplasmic and mitochondrial); assay type: cell-based; settings: for reversibility of probe oxidation: concentrations below the EC50 of DKFZ-608
TRXR1 [6] = biological target: T1, TRXR1; settings: inhibitors pre-incubated with TRXR1 before addition of TRX1
From the text: The mode of inhibition was further characterized by investigating the effect of substrate competition.

T1 sequence (Q16881 151-649 limits assumed): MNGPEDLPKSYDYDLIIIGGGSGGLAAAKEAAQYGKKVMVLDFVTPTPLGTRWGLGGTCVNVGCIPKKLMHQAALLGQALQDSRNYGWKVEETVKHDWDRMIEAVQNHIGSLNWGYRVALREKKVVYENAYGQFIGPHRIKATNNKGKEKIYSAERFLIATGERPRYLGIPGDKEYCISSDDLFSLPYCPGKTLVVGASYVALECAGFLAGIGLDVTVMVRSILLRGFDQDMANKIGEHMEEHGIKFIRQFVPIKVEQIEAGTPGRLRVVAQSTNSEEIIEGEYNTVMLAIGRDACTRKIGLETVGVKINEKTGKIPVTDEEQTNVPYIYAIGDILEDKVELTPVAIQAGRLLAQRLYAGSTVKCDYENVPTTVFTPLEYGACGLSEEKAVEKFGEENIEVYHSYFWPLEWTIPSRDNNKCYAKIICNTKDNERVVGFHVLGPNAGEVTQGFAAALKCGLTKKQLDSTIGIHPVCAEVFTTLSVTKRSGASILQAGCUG
Sequence of truncated form of TRXR1, lacking the Sec (TRXR1ΔSec) (Q16881 151-647 limits assumed, stated change not applied): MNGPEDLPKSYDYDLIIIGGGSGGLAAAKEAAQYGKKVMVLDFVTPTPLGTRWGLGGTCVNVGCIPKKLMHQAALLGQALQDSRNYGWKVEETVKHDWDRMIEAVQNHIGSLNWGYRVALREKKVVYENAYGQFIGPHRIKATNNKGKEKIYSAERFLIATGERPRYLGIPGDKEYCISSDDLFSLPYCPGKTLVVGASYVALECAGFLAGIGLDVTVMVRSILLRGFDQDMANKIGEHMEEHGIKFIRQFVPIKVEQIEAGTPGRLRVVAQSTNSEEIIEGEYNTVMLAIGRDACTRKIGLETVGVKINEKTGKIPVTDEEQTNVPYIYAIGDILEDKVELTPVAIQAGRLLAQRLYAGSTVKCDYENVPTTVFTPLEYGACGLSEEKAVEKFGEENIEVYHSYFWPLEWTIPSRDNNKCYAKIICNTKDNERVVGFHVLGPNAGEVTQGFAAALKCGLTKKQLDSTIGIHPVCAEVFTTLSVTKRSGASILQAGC

Row | Structure (SMILES) | inhibition of TRXR1ΔSec [1] | tumour recurrence (SCLC) | TRXR1 inhibition in cells (TRXR1 [2]; H209 versus A549, TRXR1 inhibition after 100min) | dose response curves upon induced overexpression of TRX1 (TRXR1 [2]; SCLC line H69) | cytotoxic effect in presence of pan-Caspase inhibitor (SCLC cell line H209; H209) | Annexin-V positive cells and late apoptotic cells (SCLC cell line H209; data not shown) | enzymatic activity after dilution of a sample containing TRXR1 and a high concentration of inhibitor (TRXR1 [3]) | effect of DTNB substrate increase on dose response curve (TRXR1 [4]) | increase of peroxides [5] | reversibility of probe oxidation (roGFP2-Orp1) | oxidation of the mitochondrial roGFP2-Orp1 probe (roGFP2-Orp1) | effect of increasing amounts of TRX1 on enzyme inhibition (TRXR1 [6])
1 | CCN(CC)C1=[S+][Au-][S]C(N(CC)CC)=[S+][Au-][S]1 [DKFZ-608] | not inhibited | completely prevents tumour recurrence | more potent inhibition of TRXR1 in the SCLC line H209 as compared to the NSCLC line A549 | rightshift of the dose response curves of cytotoxicity and TRXR1 inhibition | could be reverted by the pan-Caspase inhibitor z-VAD-FMK | increases the amount of Annexin-V positive cells and late apoptotic cells | resulted in recovery of enzymatic activity | right-shift of the dose response curve | induced fast and strong increase of peroxides | appears to be reversible | did not cause oxidation of the mitochondrial probe | increasing amounts of TRX1 reduced enzyme inhibition
2 | CC[P+](CC)(CC)[Au-][S][C@@H]1O[C@H](COC(C)=O)[C@@H](OC(C)=O)[C@H](OC(C)=O)[C@H]1OC(C)=O [auranofin, reference compound] | able to repress the activity of the truncated enzyme, although to a lesser extent | – | – | – | – | – | this was not the case | showed no affect with increasing DTNB concentrations | induced fast and strong increase of peroxides | remains stable | produces the same fast and pronounced increase in probe oxidation as in the cytoplasm | an effect not observed
